Data as given in US10172814B2, “Substituted pyridyl-cycloalkyl-carboxylic acids, compositions containing them and medical uses thereof” (BAYER PHARMA AKTIENGESELLSCHAFT, priority 2014, dated 2019).

Molecular target: human PTGES (Homo sapiens (Human), UniProt O14684)
Experiment: Human PTGES biochemical enzyme inhibition assay (conversion of PGH2 to PGE2, TR-FRET)
Settings: Enzymatic conversion of PGH2 to PGE2; read-out: Human PTGES IC50
Method in brief: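 FLAG-tagged human PTGES from Hi-5 insect cells preincubated 15–20 min with compound in pH 7.2 phosphate buffer with 2.5 mM reduced glutathione; reaction started with 8 nM PGH2 final, stopped with SnCl2/KF.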

Sequence of human PTGES (O14684 whole entry): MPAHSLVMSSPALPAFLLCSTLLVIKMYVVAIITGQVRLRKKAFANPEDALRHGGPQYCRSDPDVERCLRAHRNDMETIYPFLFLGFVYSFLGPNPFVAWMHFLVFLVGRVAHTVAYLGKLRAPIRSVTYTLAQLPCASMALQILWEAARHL

SMILES	IC50
Cc1cc(C(C(=O)Nc2cccc(CCC(=O)O)c2C)C2CCCC2)c(F)cc1-c1cncc(C(F)(F)F)c1 (racemic) [Example 183, (R/S) 3-{3-[(cyclopentyl{2-fluoro-5-methyl-4-[5-(trifluoromethyl)pyridin-3-yl]phenyl}acetyl)amino]-2-methylphenyl}propanoic acid]	1000 nM
Cc1ncc(-c2ccc(C(C(=O)Nc3cccc(CCC(=O)O)c3C)C3CCCC3)cc2)cc1F (racemic) [Example 211, (R/S) 3-[3-({cyclopentyl[4-(5-fluoro-6-methylpyridin-3-yl)phenyl]acetyl}amino)-2-methylphenyl]propanoic acid]	190 nM
CCC(CC(=O)O)c1cccc(NC(=O)C(c2ccc(-c3cncc(CC(C)C)c3)c(F)c2)C2CCCC2)c1C (single isomer, unassigned) [Example 194, 3-[3-({cyclopentyl[3-fluoro-4-(5-isobutylpyridin-3-yl)phenyl]acetyl}amino)-2-methylphenyl]pentanoic acid, single enantiomer]	6.82 nM
CCc1cncc(-c2ccc(C(C(=O)Nc3cccc(C(CC)CC(=O)O)c3C)C3CCCC3)cc2F)c1 (single isomer, unassigned) [Example 195, 3-[3-({cyclopentyl[4-(5-ethylpyridin-3-yl)-3-fluorophenyl]acetyl}amino)-2-methylphenyl]pentanoic acid, Single Enantiomer]	10.5 nM
CCC(CC(=O)O)c1cccc(NC(=O)[C@@H](c2ccc(-c3cncc(CC(F)(F)F)c3)cc2)C2CCCC2)c1C (single isomer, unassigned) [Example 200]	17.7 nM
CCC(CC(=O)O)c1cccc(NC(=O)C(c2ccc(-c3cnc(C)c(C(F)(F)F)c3)c(F)c2)C2CCCC2)c1C (single isomer, unassigned) [Example 201]	6.57 nM
CCC(CC(=O)O)c1cccc(NC(=O)[C@@H](c2ccc(-c3cncc(OC(C)C)c3)cc2)C2CCCC2)c1C (single isomer, unassigned) [Example 203]	16.7 nM
Cc1c(CCC(=O)O)cccc1NC(=O)C(c1ccc(-c2cncc(CC(F)(F)F)c2)c(F)c1)C1CCC1 (single isomer, unassigned) [Example 205, 3-{3-[(cyclobutyl{3-fluoro-4-[5-(2,2,2-trifluoroethyl)pyridin-3-yl]phenyl}acetyl)amino]-2-methylphenyl}propanoic acid, Single Enantiomer]	66.4 nM
Cc1c(CCC(=O)O)cccc1NC(=O)C(c1ccc(-c2cncc(CC(C)C)c2)c(F)c1)C1CCC1 (single isomer, unassigned) [Example 207, 3-[3-({cyclobutyl[3-fluoro-4-(5-isobutylpyridin-3-yl)phenyl]acetyl}amino)-2-methylphenyl]propanoic acid, Single Enantiomer]	14.1 nM
Cc1c(NC(=O)C(c2ccc(-c3cncc(C(F)(F)F)c3)cc2)C2CCCC2)cccc1OCC(=O)O (single isomer, unassigned; (+)) [Example 35, (+) {3-[(Cyclopentyl{4-[5-(trifluoromethyl)pyridin-3-yl]phenyl}acetyl)amino]-2-methylphenoxy}acetic acid]	3730 nM
Cc1c(CCC(=O)O)cccc1NC(=O)C(c1ccc(-c2cncc(C(F)(F)F)c2)c(F)c1)C1CCCC1 (single isomer, unassigned; (+)) [Example 49, (+) 3-{3-[(Cyclopentyl{3-fluoro-4-[5-(trifluoromethyl)pyridin-3-yl]phenyl}acetyl)amino]-2-methylphenyl}propanoic acid]	530 nM
Cc1c(CCC(=O)O)cccc1NC(=O)C(c1ccc(-c2cncc(C(F)(F)F)c2)cc1)C1CCC1 (single isomer, unassigned; (+)) [Example 56, (+) 3-{3-[(Cyclobutyl{4-[5-(trifluoromethyl)pyridin-3-yl]phenyl}acetyl)amino]-2-methylphenyl}propanoic acid]	7520 nM
Cc1c(CCC(=O)O)cccc1NC(=O)C(c1ccc(-c2ccc(C(F)(F)F)nc2)cc1)C1CCCC1 (single isomer, unassigned; (-)) [Example 5, (−) 3-{3-[(Cyclopentyl{4-[6-(trifluoromethyl)pyridin-3-yl]phenyl}acetyl)amino]-2-methylphenyl}propanoic acid]	795 nM
Cc1c(NC(=O)C(c2ccc(-c3cncc(C(F)(F)F)c3)cc2)C2CCCC2)cccc1OCC(=O)O (single isomer, unassigned; (-)) [Example 34, (−) {3-[(Cyclopentyl{4-[5-(trifluoromethyl)pyridin-3-yl]phenyl}acetyl)amino]-2-methylphenoxy}acetic acid]	9.85 nM
Cc1c(NC(=O)C(c2ccc(-c3cncc(C(F)(F)F)c3)c(F)c2)C2CCCC2)cccc1N(C)CC(=O)O (single isomer, unassigned; (-)) [Example 188, (−) N-{3-[(cyclopentyl{3-fluoro-4-[5-(trifluoromethyl)pyridin-3-yl]phenyl}acetyl)amino]-2-methylphenyl}-N-methylglycine, Single Enantiomer]	24.2 nM
Cc1c(CCC(=O)O)cccc1NC(=O)C(c1ccc(-c2cncc(CC(F)(F)F)c2)c(F)c1)C1CCCC1 (single isomer, unassigned; (-)) [Example 196, (−) 3-{3-[(cyclopentyl{3-fluoro-4-[5-(2,2,2-trifluoroethyl)pyridin-3-yl]phenyl}acetyl)amino]-2-methylphenyl}propanoic acid, Single Enantiomer]	74.7 nM
Cc1c(CCC(=O)O)cccc1NC(=O)C(c1ccc(-c2cnc(F)c(C(F)(F)F)c2)c(F)c1)C1CCCC1 (single isomer, unassigned; (-)) [Example 197]	19.3 nM
Cc1ncc(-c2ccc(C(C(=O)Nc3cccc(CCC(=O)O)c3C)C3CCCC3)cc2F)cc1CC(C)C (single isomer, unassigned; (-)) [Example 198, (−) 3-[3-({cyclopentyl[3-fluoro-4-(5-isobutyl-6-methylpyridin-3-yl)phenyl]acetyl}amino)-2-methylphenyl]propanoic acid, Single Enantiomer]	20 nM
Cc1c(CCC(=O)O)cccc1NC(=O)C(c1ccc(-c2cncc(OC(C)C)c2)c(F)c1)C1CCCC1 (single isomer, unassigned; (-)) [Example 199, (−) 3-[3-({cyclopentyl[3-fluoro-4-(5-isopropoxypyridin-3-yl)phenyl]acetyl}amino)-2-methylphenyl]propanoic acid, Single Enantiomer]	30.2 nM
Cc1ncc(-c2ccc(C(C(=O)Nc3cccc(CCC(=O)O)c3C)C3CCC3)cc2F)cc1C(F)(F)F (single isomer, unassigned; (-)) [Example 206, (−) 3-{3-[(cyclobutyl{3-fluoro-4-[6-methyl-5-(trifluoromethyl)pyridin-3-yl]phenyl}acetyl)amino]-2-methylphenyl}propanoic acid, Single Enantiomer]	10.1 nM
Cc1c(CCC(=O)O)cccc1NC(=O)C(c1ccc(-c2cncc(C(F)(F)F)c2)c(F)c1)C1CCC1 (single isomer, unassigned; (-)) [Example 208, (−) 3-{3-[(cyclobutyl{3-fluoro-4-[5-(trifluoromethyl)pyridin-3-yl]phenyl}acetyl)amino]-2-methylphenyl}propanoic acid, Single Enantiomer]	28.1 nM
